Data taken from the CheMixHub viscosity set.

Assay: xn = mol fraction of the nth substance listed

C1C[C@@H]2[C@H]3CC[C@H](C3)[C@@H]2C1 + CCCCCO
viscosity [mPa·s], 101 kPa
Conditions	x2 = 0.1465	x2 = 0.2782	x2 = 0.3987	x2 = 0.5049	x2 = 0.6067	x2 = 0.6985	x2 = 0.7827	x2 = 0.8623	x2 = 0.9326
293.15 K	2.919	2.901	2.955	3.058	3.19	3.372	3.549	3.718	3.916
298.15 K	2.621	2.595	2.622	2.7	2.807	2.953	3.095	3.27	3.411
303.15 K	2.379	2.346	2.354	2.41	2.487	2.607	2.726	2.852	2.971
313.15 K	1.972	1.92	1.914	1.922	1.957	2.033	2.107	2.18	2.253

CC(=O)C=C(C)C + CCCCCOC(C)=O
298.15 K, 101 kPa
Conditions	viscosity [mPa·s]
x1 = 0.11	0.7593
x1 = 0.167	0.7461

CCC(=O)O + CCCCN(CCCC)CCCC
viscosity [mPa·s], 101.33 kPa
Conditions	x1 = 0.1	x1 = 0.2	x1 = 0.3	x1 = 0.4	x1 = 0.5	x1 = 0.6	x1 = 0.7	x1 = 0.8	x1 = 0.9
293.15 K	1.867	–	–	–	6.422	12.71	26.1	23.66	6.57
298.15 K	1.389	1.676	2.303	3.571	5.447	10.24	20.63	19.13	5.91
303.15 K	1.228	1.495	1.923	3.107	4.591	8.37	16.9	15.79	4.93
308.15 K	1.112	1.342	1.728	2.693	3.887	7.04	13.12	13.19	4.33
313.15 K	1.015	1.212	1.523	2.359	3.372	5.67	10.81	10.94	3.79
318.15 K	0.938	1.096	1.361	2.071	2.954	5.03	8.92	9.32	3.39
323.15 K	0.878	0.994	1.245	1.839	2.557	4.35	7.55	8.06	3.04

C1C[C@@H]2[C@H]3CC[C@H](C3)[C@@H]2C1 + CCCCO
viscosity [mPa·s], 101 kPa
Conditions	x2 = 0.1697	x2 = 0.3148	x2 = 0.4378	x2 = 0.5481	x2 = 0.6472	x2 = 0.7336	x2 = 0.8102	x2 = 0.8799	x2 = 0.9439
293.15 K	2.796	2.675	2.646	2.66	2.694	2.743	2.807	2.855	2.906
298.15 K	2.513	2.397	2.354	2.355	2.372	2.416	2.465	2.505	2.543
303.15 K	2.282	2.177	2.128	2.118	2.135	2.165	2.211	2.242	2.272
313.15 K	1.882	1.773	1.708	1.685	1.682	1.7	1.719	1.743	1.766

CCC(=O)O + CCCCO
308.15 K, 101 kPa
Conditions	viscosity [mPa·s]
x1 = 0.0503	1.834
x1 = 0.1016	1.791
x1 = 0.1477	1.736
x1 = 0.1995	1.695
x1 = 0.301	1.556
x1 = 0.4	1.482
x1 = 0.5007	1.402
x1 = 0.5993	1.312
x1 = 0.7006	1.222
x1 = 0.7995	1.12
x1 = 0.9007	1.02

CCCCCCCCCCCCC + CCCCO
viscosity [mPa·s], 100 kPa
Conditions	x1 = 0.1001	x1 = 0.2009	x1 = 0.2975	x1 = 0.3918	x1 = 0.5054	x1 = 0.6051	x1 = 0.7	x1 = 0.7984	x1 = 0.8908
293.15 K	2.584	2.319	2.148	2.004	1.901	1.841	1.807	1.788	1.829
298.15 K	2.271	2.051	1.905	1.789	1.703	1.644	1.63	1.617	1.668
303.15 K	2.006	1.821	1.701	1.606	1.535	1.489	1.48	1.469	1.522
308.15 K	1.782	1.625	1.524	1.448	1.391	1.353	1.351	1.342	1.386
313.15 K	1.591	1.459	1.374	1.312	1.268	1.246	1.239	1.231	1.265
318.15 K	1.426	1.314	1.245	1.194	1.161	1.152	1.139	1.133	1.158
323.15 K	1.283	1.19	1.132	1.092	1.066	1.059	1.052	1.048	1.068

ClCCCCCl + CCCCO
viscosity [mPa·s], 101 kPa
Conditions	x1 = 0.0988	x1 = 0.1965	x1 = 0.2919	x1 = 0.3955	x1 = 0.4961	x1 = 0.5978	x1 = 0.6964	x1 = 0.7945	x1 = 0.8982
298.15 K	2.129	1.827	1.61	1.455	1.338	1.265	1.221	1.204	1.213
313.15 K	1.485	1.3	1.17	1.077	1.012	0.9721	0.9502	0.9443	0.9674

Nc1cccc(Cl)c1 + CCCCO
viscosity [mPa·s], 101 kPa
Conditions	x1 = 0.0884	x1 = 0.1792	x1 = 0.2723	x1 = 0.368	x1 = 0.4662	x1 = 0.5671	x1 = 0.6708	x1 = 0.7774	x1 = 0.8871
303.15 K	2.47	2.654	2.84	3.03	3.219	3.412	3.607	3.806	4.02
308.15 K	2.198	2.371	2.546	2.72	2.895	3.073	3.253	3.441	3.635
313.15 K	1.966	2.128	2.284	2.441	2.598	2.759	2.923	3.091	3.261
318.15 K	1.761	1.911	2.052	2.19	2.328	2.468	2.61	2.756	2.897

O=C(O)c1ccccc1O + CCCCO
viscosity [mPa·s]
Conditions	308.15 K	313.15 K	318.15 K	323.15 K
101 kPa, x1 = 0.14	2.453	–	–	–
101 kPa, x1 = 0.173	2.656	–	–	–
101 kPa, x1 = 0.193	2.761	–	–	–
101.33 kPa, x1 = 0.14	2.453	2.187	1.951	1.736
101.33 kPa, x1 = 0.193	2.761	2.375	2.154	1.928

Nc1cccc(Cl)c1 + CCCCOCCO
303.15 K, 101 kPa
Conditions	viscosity [mPa·s]
x1 = 0.1347	2.958
x1 = 0.2158	3.022
x1 = 0.3353	3.099
x1 = 0.4394	3.15
x1 = 0.5555	3.192
x1 = 0.6554	3.214
x1 = 0.7157	3.226
x1 = 0.8263	3.239
x1 = 0.912	3.242

CC(=O)CCC(=O)O + CCCC[N+](CCCC)(CCCC)CCCC.[Br-]
viscosity [mPa·s], 101 kPa
Conditions	293.15 K	298.15 K	303.15 K	308.15 K	313.15 K	318.15 K	323.15 K
x1 = 0.75	376.5	–	175.1	–	93.88	–	53.38
x2 = 0.25	–	261.9	169.6	118.6	89.13	64.47	46.13
